# Literature values as cited in patent publication US20060153907A1, “Liposome formulations of boronic acid compounds” (priority 2004, published 2006).
# Test system: tumor lines
# Details: NCI in vitro screen
structure (smiles),measurement,value
CC(C)C[C@H](NC(=O)[C@H](Cc1ccccc1)NC(=O)c1cnccn1)B(O)O [bortezomib],cytotoxicity against a range of tumor lines,showed cytotoxicity
